Data taken from the RepoRT retention time repository (doi:10.1016/j.foodchem.2021.129757).
Where a name gives a salt, the structure may show the parent alone.

Experiments:
Details in all cases: stereoisomer not certain
[1] = RP, Agilent ZORBAX RRHD Eclipse Plus C18, 50 × 2.1 mm, 1.8 µm, 30 °C, 0.4 mL/min, estimated dead time 0.28 min; A: water + 0.1% formic acid, pH 3; B: acetonitrile + 0.1% formic acid, pH 3; gradient (min/%B) 0/1 5/10 8/25 9.1/99 10/99 12/99
[2] = RP, Agilent ZORBAX RRHD Eclipse Plus C18, 50 × 2.1 mm, 1.8 µm, 30 °C, 0.4 mL/min, estimated dead time 0.28 min; A: water + 0.1% formic acid, pH 3; B: acetonitrile + 0.1% formic acid, pH 3; gradient (min/%B) 0/1 5/10 8/25 9.1/99 10/99 12/1
[3] = RP, Waters ACQUITY UPLC HSS T3, 100 × 2.1 mm, 50 °C; A: water + 0.1% formic acid, pH 3; B: 30% methanol + 70% acetonitrile + 0.1% formic acid, pH 3; gradient (min/%B) 0/5 1/8 2/15 3/40 4/70 4.5/100 5/100 6.4/100 6.6/5 6.8/5 7/5
[4] = RP, Agilent ZORBAX Eclipse XDB-C18, 100 × 2.1 mm, 1.8 µm, 50 °C, 0.4 mL/min, estimated dead time 0.55 min; A: water + 0.1% formic acid, pH 3; B: methanol + 0.1% formic acid, pH 3; gradient (min/%B) 0/2 10/100 14.5/100 14.51/2 16.5/2
[5] = RP, Waters ACQUITY UPLC BEH C18, 100 × 2.1 mm, 1.7 µm, 65 °C, 0.4 mL/min, estimated dead time 0.55 min; A: water + 0.1% formic acid, pH 3; B: 80% acetonitrile + 20% acetone + 0.1% formic acid, pH 3; gradient (min/%B) 0/0 5/100 5.5/0 6/0
[6] = RP, Waters ACQUITY UPLC BEH Shield RP18, 150 × 2.1 mm, 1.7 µm, 40 °C, 0.4 mL/min, estimated dead time 0.83 min; A: water + 0.1% formic acid, pH 3; B: acetonitrile + 0.1% formic acid, pH 3; gradient (min/%B) 0/0 30/50 31/100 37/100 37.1/0
[7] = RP, Agilent InfinityLab Poroshell 120 EC-C18, 100 × 3 mm, 2.7 µm, 25 °C, 0.4 mL/min, estimated dead time 1.1 min; A: water + 0.1% formic acid, pH 3; B: acetonitrile + 0.1% formic acid, pH 3; gradient (min/%B) 0/5 10/25 20/40 24/90 25/90 26/5 30/5

LC retention time [1] [min]	LC retention time [2] [min]	Compound	other results
5.42	6.09	O=C1CCC(Cc2ccc(OS(=O)(=O)O)c(O)c2)O1 (centres undefined)	–
3.73	6.31	CC(Oc1ccc(O)cc1)C(=O)O (single isomer, unassigned; (+)) [(+)-2-(4-Hydroxyphenoxy)propionic acid]	–
4.65	–	Oc1cc(O)c2c(c1)OC(c1ccc(O)c(O)c1)C(O)C2 (single isomer, unassigned; (+)) [(+)-Catechin]	–
1.96	4	COc1cccc(OS(=O)(=O)O)c1O [1-Methyl-pyrogallol-O-sulfate]	–
1.12	2.89	COc1c(O)cccc1OS(=O)(=O)O [2-Methyl-pyrogallol-O-sulfate]	–
1.88	3.58	O=C(O)CNC(=O)c1cccc(O)c1 [3-Hydroxyhippuric acid]	LC retention time [5]: 1.58 min
4.67	5.69	O=C(O)Cc1cccc(O)c1 [3-hydroxyphenylacetic acid]	LC retention time [4]: 3.55 min
3.83	5.96	Cc1ccc(OS(=O)(=O)O)c(O)c1 [4-Methylcatechol-1-O-sulfate]	–
4.14	5.23	O=C(O)C=Cc1ccc(O)c(OC2OC(C(=O)O)C(O)C(O)C2O)c1 (centres undefined) [Caffeic acid-3-glucuronide]	–
3.97	3.15	Oc1ccccc1O [Catechol]	LC retention time [5]: 1.75 min; LC retention time [6]: 4.35 min
5.06	6.39	COc1ccc(CCC(=O)O)cc1OS(=O)(=O)O [Dihydro isoferulic acid-3-O-sulfate]	–
5.15	5.64	COc1cc(CCC(=O)O)ccc1OC1OC(C(=O)O)C(O)C(O)C1O (centres undefined) [Dihydroferulic acid-4-O-glucuronide]	–
4.07	7.16	COc1cc(CCC(=O)O)ccc1O [Dihydroferulic acid]	LC retention time [6]: 8.81 min
5.06	7.68	COc1ccc(CCC(=O)O)cc1O [Dihydroisoferulic acid]	–
1.99	5.2	COc1ccc(C(=O)O)cc1O [Isovanillic acid]	–
8.38	7.84	O=C(O)C1OC(Oc2cc(O)c3c(=O)c(O)c(-c4ccc(O)c(O)c4)oc3c2)C(O)C(O)C1O (centres undefined) [Quercetin-7-O-glucuronide]	–
3.78	5.25	O=C(O)C=Cc1ccc(OS(=O)(=O)O)cc1 [p-Coumaric acid 4-O-sulfate]	–
1.85	3.8	O=C(O)C=Cc1ccc(OC2OC(C(=O)O)C(O)C(O)C2O)cc1 (centres undefined) [p-Coumaric acid-4-O-glucuronide]	–

The next lines start with the molecule.

Compound	LC retention time [1] [min]	LC retention time [2] [min]	other results
O=C(O)C1CCCCN1 (single isomer, unassigned; (+)) [(+)-Pipecolinic acid]	–	–	LC retention time [3]: 0.617 min
O=Cc1ccccc1O [2-Hydroxybenzaldehyde]	–	–	LC retention time [3]: 3.72 min
COc1ccc(C(=O)O)c(O)c1 [2-hydroxy-4-methoxybenzoic acid]	–	8.98	–
Cn1c(=O)[nH]c(=O)c2c1[nH]c(=O)n2C [3,7-Dimethyluric acid]	–	–	LC retention time [3]: 1.54 min
O=C(O)CCc1ccc(O)cc1O [3-(2,4-dihydroxyphenyl)propionic acid]	–	–	LC retention time [3]: 3.02 min
O=C(O)CCc1cc(O)cc(O)c1 [3-(3,5-Dihydroxyphenyl)propanoic acid]	–	–	LC retention time [3]: 2.66 min
O=Cc1cccc(O)c1 [3-Hydroxybenzaldehyde]	–	5.91	LC retention time [4]: 3.72 min
COc1ccc(C2Oc3cc(O)cc(O)c3CC2O)cc1O (centres undefined) [4'-O-methylepicatechin]	–	7.85	–
Cc1ccc(O)c(OS(=O)(=O)O)c1 [4-Methylcatechol-2-O-sulfate]	3.83	5.96	–
Cn1cnc2[nH]c(=O)[nH]c(=O)c21 [7-Methylxanthine]	–	–	LC retention time [3]: 1.25 min
C=C1C(=O)OC2C1CCC(C)=C1C(=O)C=C(COC(=O)C(=O)O)C12 (centres undefined) [8-deoxylactucin-15-oxalate]	–	–	LC retention time [6]: 14.5 min
C=C1C(=O)OC2C1CCC(C)=C1C(=O)C=C(CO)C12 (centres undefined) [8-deoxylactucin]	–	–	LC retention time [6]: 15.5 min
CC(=O)Nc1c(N)[nH]c(=O)n(C)c1=O [AAMU]	–	–	LC retention time [3]: 0.681 min
C=CCS(=O)CC(N)C(=O)O (centres undefined) [Alliin]	–	–	LC retention time [3]: 0.638 min
O=C1OC(C(O)CO)C(O)=C1O (centres undefined) [Ascorbic acid]	–	–	LC retention time [3]: 0.601 min
O=C(O)C=Cc1ccc(O)c(OS(=O)(=O)O)c1 [Caffeic acid-3-O-sulfate]	3.99	4.86	–
CC1=C2C(=O)C=C(COC(=O)C(=O)O)C2C2OC(=O)C(C)C2CC1 (centres undefined) [Dihydro-8-deoxylactucin-15-oxalate]	–	–	LC retention time [6]: 14.9 min
CC1=C2C(=O)C=C(CO)C2C2OC(=O)C(C)C2CC1 (centres undefined) [Dihydro-8-deoxylactucin]	–	–	LC retention time [6]: 14.5 min
O=C1c2c(O)cc(O)cc2OC(c2ccc(O)cc2)C1O (centres undefined) [Dihydrokaempferol]	–	–	LC retention time [6]: 15.3 min
CC1=C2C(=O)C=C(COC(=O)C(=O)O)C2C2OC(=O)C(C)C2C(O)C1 (centres undefined) [Dihydrolactucin-15-oxalate]	–	–	LC retention time [6]: 9.7 min
CC1=C2C(=O)C=C(CO)C2C2OC(=O)C(C)C2C(O)C1 (centres undefined) [Dihydrolactucin]	–	–	LC retention time [6]: 10.5 min
CC1=C2C(=O)C=C(COC(=O)C(=O)O)C2C2OC(=O)C(C)C2C(OC(=O)Cc2ccc(O)cc2)C1 (centres undefined) [Dihydrolactucopicrin-15-oxalate]	–	–	LC retention time [6]: 17.3 min

Compound	LC retention time [1] [min]	LC retention time [2] [min]	other results
COc1ccc(-c2cc(=O)c3c(O)cc(OC4OC(C(=O)O)C(O)C(O)C4O)cc3o2)cc1O (centres undefined) [Diosmetin 7-glucuronide]	–	–	LC retention time [3]: 3.6 min
O=C1OCC(Cc2cccc(O)c2)C1Cc1cccc(O)c1 (centres undefined) [Enterolactone]	–	–	LC retention time [5]: 2.88 min; LC retention time [7]: 17.4 min
O=C(O)C1OC(Oc2cc(O)c3c(=O)c(-c4ccc(O)cc4)coc3c2)C(O)C(O)C1O (centres undefined) [Genistein 7-O-glucuronide]	–	–	LC retention time [5]: 2.1 min; LC retention time [7]: 9.6 min
COc1cc(CC(=O)O)ccc1OS(=O)(=O)O [Homovanillic acid sulfate]	2.12	4.48	LC retention time [5]: 1.45 min
O=C(O)C1OC(Oc2ccc(O)cc2)C(O)C(O)C1O (centres undefined) [Hydroquinone glucuronide]	–	–	LC retention time [3]: 0.909 min
O=C(O)C1CC(O)CN1 (centres undefined) [Hydroxyproline]	–	–	LC retention time [3]: 0.466 min
CS(=O)CCCN=C=S (centres undefined) [Iberin]	–	–	LC retention time [3]: 3.25 min
O=C(Cc1c[nH]c2ccccc12)OC1OC(C(=O)O)C(O)C(O)C1O (centres undefined) [Indole-3-acetic acid glucuronide]	–	–	LC retention time [3]: 3.46 min
OCC1OC(Oc2c[nH]c3ccccc23)C(O)C(O)C1O (stereo not drawn) [Indoxyl beta-d-glucoside]	–	–	LC retention time [3]: 2.92 min
NC(=O)NCCC[C@H](N)C(=O)O [L-Citrulline]	–	–	LC retention time [3]: 0.483 min
C=C1C(=O)OC2C3C(CO)=CC(=O)C3=C(C)CC(O)C12 (centres undefined) [Lactucin]	–	–	LC retention time [6]: 11.2 min
C=C1C(=O)OC2C3C(CO)=CC(=O)C3=C(C)CC(OC(=O)Cc3ccc(O)cc3)C12 (centres undefined) [Lactucopicrin]	–	–	LC retention time [6]: 18.4 min
CN(C)CC(=O)O [N,N-Dimethylglycine]	–	–	LC retention time [3]: 0.49 min
O=C(O)Cc1ccccc1 [Phenylacetic acid]	4.65	7.64	–
O=S(=O)(O)Oc1cccc(O)c1O [Pyrogallol-1-O-sulfate]	0.774	1.56	–
Oc1cccc(O)c1 [Resorcinol]	1.44	2.66	–
O=C(O)C=Cc1ccc(OS(=O)(=O)O)c(O)c1 [caffeic acid-4-O-sulfate]	5.5	5.28	–
O=c1c(O)c(-c2ccccc2)oc2cc(O)cc(O)c12 [galangin]	–	–	LC retention time [6]: 29.4 min
C=C1C(=O)OC2C3C(COC(=O)C(=O)O)=CC(=O)C3=C(C)CC(O)C12 (centres undefined) [lactucin-15-oxalate]	–	–	LC retention time [6]: 10.4 min
C=C1C(=O)OC2C3C(COC(=O)C(=O)O)=CC(=O)C3=C(C)CC(OC(=O)Cc3ccc(O)cc3)C12 (centres undefined) [lactucopicrin-15-oxalate]	–	–	LC retention time [6]: 17.2 min
CCCOC(=O)c1cc(O)c(O)c(O)c1 [propyl gallate]	–	–	LC retention time [6]: 12.8 min
